What was measured:
[1] = system: Geobacillus stearothermophilus spores; assay: Resistance of self-contained biological indicators to hydrogen peroxide sterilization, glucosidase enzyme activity fluorescence readout (ENZ+); format: cell-based
Description: (§1) PET film (.09 mm thick) was coated with colloidal silica as described in International Publication No. WO2014/189716, which is incorporated herein by reference in its entirety. […] Separate aqueous spore coating solutions were prepared as described in Example 1 with the amino acids shown in table 4 present in the coating solutions. Two microliter aliquots (containing at least 10^6 spores) of the respective spore coating solutions were deposited onto the silica-coated PET film, forming a series of spaced-apart spots on the film. The spore coated films were dried in a 60° C. incubator for 12 minutes. Circular discs (hereinafter, “coated carriers”) of the PET film, each disc including one of the dried spots, were punched out and were used to assemble self-contained biological indicators (BI) similar to that shown in FIG. 1 of International Publication No. WO2014/189716. The coated carriers described above were placed into the “spore carrier 135” shown in FIG. 1 of International Publication No. WO2014/189716. Each self-contained BI comprised a polycarbonate outer container, a breaker, a cap, and a cap filter. Disposed inside the outer container were a coated carrier along with an ampoule media containing the nutrient medium from 3M ATTEST 1292 Rapid Readout Biological Indicators plus 5g/L methionine (as described in Example 1).
(§2) The self-contained biological indicators with different concentrations of additives (Table 4) were exposed to hydrogen peroxide sterilization in STERRAD NX sterilizer. The sterilization processes were run by manually injecting 1.0 ml of 59% hydrogen peroxide per load, unless specified otherwise. The exposure time was varied to determine the resistance profile of self-contained BIs with different additive formulations. The BIs were activated by pressing down the cap to break the media ampoule. The activated BIs were placed in a bench-top fluorimeter (3M Company, St. Paul, Minn.) to detect fluorescence.
(§3) A self-contained BI that is not completely inactivated (i.e., not all of the spores are killed by the sterilization process) will resume cellular functions upon activation of the BI. The production of glucosidase enzyme by surviving spores is an indication that at least one of the spores have not been inactivated (killed) by the sterilization process. The glucosidase enzyme cleaves the 4-methylumbelliferyl-glucoside (MUG) releasing the fluorescent methyl umbelliferone, which is detected using a bench-top fluorimeter. Growth and proliferation of spores in the self-contained biological indicator can also be detected by a pH change, which may be detected by a color change of the pH indicator in the growth medium.
(§4) Self-contained biological indicators were prepared (with various additives listed in table 4) as described above in this Example. For each additive tested, a lower range and a higher range was used as a preliminary screen to identify additives modulated the resistance of the spores to the sterilant. Five self-contained BIs representing each condition were exposed to hydrogen peroxide sterilization in STERRAD NX sterilizer. The sterilization processes used a constant injection volume (1.0 ml of 59% hydrogen peroxide) and various times (e.g., 20 seconds to 7 minutes) of exposure to the hydrogen peroxide. The self-contained BIs were activated after exposure to the sterilization process and were monitored for fluorescence using a bench-top fluorimeter) and pH based color change (visually). […]
(§5) Self-contained biological indicators (with various additives listed in table 5) were prepared as described in Example 2. The self-contained biological indicators were exposed to hydrogen peroxide in a STERRAD NX sterilizer as described in Example 2. The self-contained BIs were activated after exposure to the sterilization process and were monitored for fluorescence using a bench-top fluorimeter and pH based color change (visually).

[2] = system: Geobacillus stearothermophilus spores; assay: Resistance of self-contained biological indicators to hydrogen peroxide sterilization, growth readout by pH colour change (GRO+); format: cell-based
Description: as §1, §2, §3, §4, §5

[3] = Table 4, modulator 0.01 weight percent in spore coating solution, H2O2 exposure 30 sec.
[4] = Table 4, modulator 0.01 weight percent in spore coating solution, H2O2 exposure 60 sec.
[5] = Table 4, modulator 0.01 weight percent in spore coating solution, H2O2 exposure 90 sec.
[6] = Table 4, modulator 0.01 weight percent in spore coating solution, H2O2 exposure 3 min.
[7] = Table 4, modulator 0.01 weight percent in spore coating solution, H2O2 exposure 7 min.
[8] = Table 4, modulator 0.1 weight percent in spore coating solution, H2O2 exposure 30 sec.
[9] = Table 4, modulator 0.1 weight percent in spore coating solution, H2O2 exposure 60 sec.
[10] = Table 4, modulator 0.1 weight percent in spore coating solution, H2O2 exposure 90 sec.
[11] = Table 4, modulator 0.1 weight percent in spore coating solution, H2O2 exposure 3 min.
[12] = Table 4, modulator 0.1 weight percent in spore coating solution, H2O2 exposure 7 min.
[13] = Table 5, modulator 0.05 weight percent in spore coating solution, H2O2 exposure 20 sec.
[14] = Table 5, modulator 0.05 weight percent in spore coating solution, H2O2 exposure 30 sec.
[15] = Table 5, modulator 0.05 weight percent in spore coating solution, H2O2 exposure 60 sec.
[16] = Table 5, modulator 0.05 weight percent in spore coating solution, H2O2 exposure 90 sec.
[17] = Table 5, modulator 0.05 weight percent in spore coating solution, H2O2 exposure 3 min.
[18] = Table 5, modulator 0.05 weight percent in spore coating solution, H2O2 exposure 7 min.
[19] = Table 5, modulator 0.1 weight percent in spore coating solution, H2O2 exposure 20 sec.
[20] = Table 5, modulator 0.1 weight percent in spore coating solution, H2O2 exposure 30 sec.
[21] = Table 5, modulator 0.1 weight percent in spore coating solution, H2O2 exposure 60 sec.
[22] = Table 5, modulator 0.1 weight percent in spore coating solution, H2O2 exposure 90 sec.
[23] = Table 5, modulator 0.1 weight percent in spore coating solution, H2O2 exposure 3 min.
[24] = Table 5, modulator 0.1 weight percent in spore coating solution, H2O2 exposure 7 min.
[25] = Table 5, modulator 0.2 weight percent in spore coating solution, H2O2 exposure 20 sec.
[26] = Table 5, modulator 0.2 weight percent in spore coating solution, H2O2 exposure 30 sec.
[27] = Table 5, modulator 0.2 weight percent in spore coating solution, H2O2 exposure 60 sec.
[28] = Table 5, modulator 0.2 weight percent in spore coating solution, H2O2 exposure 90 sec.
[29] = Table 5, modulator 0.2 weight percent in spore coating solution, H2O2 exposure 3 min.
[30] = Table 5, modulator 0.2 weight percent in spore coating solution, H2O2 exposure 7 min.
[31] = Table 5, modulator 0.4 weight percent in spore coating solution, H2O2 exposure 20 sec.
[32] = Table 5, modulator 0.4 weight percent in spore coating solution, H2O2 exposure 30 sec.
[33] = Table 5, modulator 0.4 weight percent in spore coating solution, H2O2 exposure 60 sec.
[34] = Table 5, modulator 0.4 weight percent in spore coating solution, H2O2 exposure 90 sec.
[35] = Table 5, modulator 0.4 weight percent in spore coating solution, H2O2 exposure 3 min.
[36] = Table 5, modulator 0.4 weight percent in spore coating solution, H2O2 exposure 7 min.
[37] = Table 5, modulator 0.8 weight percent in spore coating solution, H2O2 exposure 20 sec.
[38] = Table 5, modulator 0.8 weight percent in spore coating solution, H2O2 exposure 30 sec.
[39] = Table 5, modulator 0.8 weight percent in spore coating solution, H2O2 exposure 60 sec.
[40] = Table 5, modulator 0.8 weight percent in spore coating solution, H2O2 exposure 90 sec.
[41] = Table 5, modulator 0.8 weight percent in spore coating solution, H2O2 exposure 3 min.
[42] = Table 5, modulator 0.8 weight percent in spore coating solution, H2O2 exposure 7 min.

Compound: N=C(N)NCCC[C@H](N)C(=O)O [L-arginine]
- percentage of self-contained biological indicators positive for glucosidase enzyme activity (ENZ+) [1, 3]: 80%
- percentage of self-contained biological indicators positive for glucosidase enzyme activity (ENZ+) [1, 4]: 60%
- percentage of self-contained biological indicators positive for glucosidase enzyme activity (ENZ+) [1, 5]: 0%
- percentage of self-contained biological indicators positive for glucosidase enzyme activity (ENZ+) [1, 6]: 0%
- percentage of self-contained biological indicators positive for glucosidase enzyme activity (ENZ+) [1, 7]: 0%
- percentage of self-contained biological indicators positive for glucosidase enzyme activity (ENZ+) [1, 8]: 80%
- percentage of self-contained biological indicators positive for glucosidase enzyme activity (ENZ+) [1, 9]: 0%
- percentage of self-contained biological indicators positive for glucosidase enzyme activity (ENZ+) [1, 10]: 0%
- percentage of self-contained biological indicators positive for glucosidase enzyme activity (ENZ+) [1, 11]: 0%
- percentage of self-contained biological indicators positive for glucosidase enzyme activity (ENZ+) [1, 12]: 0%
- percentage of self-contained biological indicators positive for glucosidase enzyme activity (ENZ+) [1, 13]: 100%
- percentage of self-contained biological indicators positive for glucosidase enzyme activity (ENZ+) [1, 14]: 100%
- percentage of self-contained biological indicators positive for glucosidase enzyme activity (ENZ+) [1, 15]: 67%
- percentage of self-contained biological indicators positive for glucosidase enzyme activity (ENZ+) [1, 16]: 0%
- percentage of self-contained biological indicators positive for glucosidase enzyme activity (ENZ+) [1, 17]: 0%
- percentage of self-contained biological indicators positive for glucosidase enzyme activity (ENZ+) [1, 18]: 0%
- percentage of self-contained biological indicators positive for glucosidase enzyme activity (ENZ+) [1, 19]: 100%
- percentage of self-contained biological indicators positive for glucosidase enzyme activity (ENZ+) [1, 20]: 100%
- percentage of self-contained biological indicators positive for glucosidase enzyme activity (ENZ+) [1, 21]: 33%
- percentage of self-contained biological indicators positive for glucosidase enzyme activity (ENZ+) [1, 22]: 0%
- percentage of self-contained biological indicators positive for glucosidase enzyme activity (ENZ+) [1, 23]: 0%
- percentage of self-contained biological indicators positive for glucosidase enzyme activity (ENZ+) [1, 24]: 0%
- percentage of self-contained biological indicators positive for glucosidase enzyme activity (ENZ+) [1, 25]: 100%
- percentage of self-contained biological indicators positive for glucosidase enzyme activity (ENZ+) [1, 26]: 100%
- percentage of self-contained biological indicators positive for glucosidase enzyme activity (ENZ+) [1, 27]: 33%
- percentage of self-contained biological indicators positive for glucosidase enzyme activity (ENZ+) [1, 28]: 0%
- percentage of self-contained biological indicators positive for glucosidase enzyme activity (ENZ+) [1, 29]: 0%
- percentage of self-contained biological indicators positive for glucosidase enzyme activity (ENZ+) [1, 30]: 0%
- percentage of self-contained biological indicators positive for glucosidase enzyme activity (ENZ+) [1, 31]: 100%
- percentage of self-contained biological indicators positive for glucosidase enzyme activity (ENZ+) [1, 32]: 100%
- percentage of self-contained biological indicators positive for glucosidase enzyme activity (ENZ+) [1, 33]: 0%
- percentage of self-contained biological indicators positive for glucosidase enzyme activity (ENZ+) [1, 34]: 0%
- percentage of self-contained biological indicators positive for glucosidase enzyme activity (ENZ+) [1, 35]: 0%
- percentage of self-contained biological indicators positive for glucosidase enzyme activity (ENZ+) [1, 36]: 0%
- percentage of self-contained biological indicators positive for glucosidase enzyme activity (ENZ+) [1, 37]: 100%
- percentage of self-contained biological indicators positive for glucosidase enzyme activity (ENZ+) [1, 38]: 67%
- percentage of self-contained biological indicators positive for glucosidase enzyme activity (ENZ+) [1, 39]: 0%
- percentage of self-contained biological indicators positive for glucosidase enzyme activity (ENZ+) [1, 40]: 0%
- percentage of self-contained biological indicators positive for glucosidase enzyme activity (ENZ+) [1, 41]: 0%
- percentage of self-contained biological indicators positive for glucosidase enzyme activity (ENZ+) [1, 42]: 0%
- sensitivity of the biological indicator to the sterilization process relative to the control with no additives ([2]; Example 2 / Comparative Example 1 (Table 4), fluorescence and growth readouts): increased sensitivity (decreased resistance)
- sensitivity of the spores to the damaging/lethal effects of the sterilization process relative to the control with no additives ([2]; Example 3 (Table 5), fluorescence and growth readouts): increased sensitivity
- percentage of self-contained biological indicators positive for growth (GRO+) [2, 3]: 100%
- percentage of self-contained biological indicators positive for growth (GRO+) [2, 4]: 0%
- percentage of self-contained biological indicators positive for growth (GRO+) [2, 5]: 0%
- percentage of self-contained biological indicators positive for growth (GRO+) [2, 6]: 0%
- percentage of self-contained biological indicators positive for growth (GRO+) [2, 7]: 0%
- percentage of self-contained biological indicators positive for growth (GRO+) [2, 8]: 40%
- percentage of self-contained biological indicators positive for growth (GRO+) [2, 9]: 0%
- percentage of self-contained biological indicators positive for growth (GRO+) [2, 10]: 0%
- percentage of self-contained biological indicators positive for growth (GRO+) [2, 11]: 0%
- percentage of self-contained biological indicators positive for growth (GRO+) [2, 12]: 0%
- percentage of self-contained biological indicators positive for growth (GRO+) [2, 13]: 100%
- percentage of self-contained biological indicators positive for growth (GRO+) [2, 14]: 100%
- percentage of self-contained biological indicators positive for growth (GRO+) [2, 15]: 0%
- percentage of self-contained biological indicators positive for growth (GRO+) [2, 16]: 0%
- percentage of self-contained biological indicators positive for growth (GRO+) [2, 17]: 0%
- percentage of self-contained biological indicators positive for growth (GRO+) [2, 18]: 0%
- percentage of self-contained biological indicators positive for growth (GRO+) [2, 19]: 100%
- percentage of self-contained biological indicators positive for growth (GRO+) [2, 20]: 100%
- percentage of self-contained biological indicators positive for growth (GRO+) [2, 21]: 0%
- percentage of self-contained biological indicators positive for growth (GRO+) [2, 22]: 0%
- percentage of self-contained biological indicators positive for growth (GRO+) [2, 23]: 0%
- percentage of self-contained biological indicators positive for growth (GRO+) [2, 24]: 0%
- percentage of self-contained biological indicators positive for growth (GRO+) [2, 25]: 100%
- percentage of self-contained biological indicators positive for growth (GRO+) [2, 26]: 100%
- percentage of self-contained biological indicators positive for growth (GRO+) [2, 27]: 0%
- percentage of self-contained biological indicators positive for growth (GRO+) [2, 28]: 0%
- percentage of self-contained biological indicators positive for growth (GRO+) [2, 29]: 0%
- percentage of self-contained biological indicators positive for growth (GRO+) [2, 30]: 0%
- percentage of self-contained biological indicators positive for growth (GRO+) [2, 31]: 67%
- percentage of self-contained biological indicators positive for growth (GRO+) [2, 32]: 33%
- percentage of self-contained biological indicators positive for growth (GRO+) [2, 33]: 0%
- percentage of self-contained biological indicators positive for growth (GRO+) [2, 34]: 0%
- percentage of self-contained biological indicators positive for growth (GRO+) [2, 35]: 0%
- percentage of self-contained biological indicators positive for growth (GRO+) [2, 36]: 0%
- percentage of self-contained biological indicators positive for growth (GRO+) [2, 37]: 33%
- percentage of self-contained biological indicators positive for growth (GRO+) [2, 38]: 0%
- percentage of self-contained biological indicators positive for growth (GRO+) [2, 39]: 0%
- percentage of self-contained biological indicators positive for growth (GRO+) [2, 40]: 0%
- percentage of self-contained biological indicators positive for growth (GRO+) [2, 41]: 0%
- percentage of self-contained biological indicators positive for growth (GRO+) [2, 42]: 0%

From patent US20210038753A1, “BIOLOGICAL STERILIZATION INDICATOR WITH STERILANT RESISTANCE MODULATOR” (3M INNOVATIVE PROPERTIES COMPANY, priority 2014, published 2021)
